In brackets after ≈: the same amount, converted by molar mass. Activity calls are given as the source filed them. No cut-off for these calls is given here.
Key:
[1] = tested on: Enterococcus faecium; assay: Antibacterial activity against vancomycin-susceptible Enterococcus faecium 119-39A clinical isolate by broth microdilution method; assay type: functional
[2] = Distribution half life in ICR mouse at 20 mg/kg, iv measured for 24 hrs by UPLC analysis; assay type: ADME, organism-based; conditions: in vivo, read-out: alphat1/2 (converted)
[3] = tested on: Staphylococcus aureus; assay: Antibacterial activity against Staphylococcus aureus ATCC 27660 by broth microdilution method; assay type: functional
[4] = tested on: Enterococcus faecalis; assay: Antibacterial activity against vancomycin-susceptible Enterococcus faecalis 201 clinical isolate by broth microdilution method; assay type: functional
[5] = Oral bioavailability in ICR mouse at 20 mg/kg administered as via gavage measured for 36 hrs by UPLC analysis; assay type: ADME, organism-based; conditions: in vivo
[6] = Clearance in ICR mouse at 20 mg/kg, iv measured for 24 hrs by UPLC analysis; assay type: ADME, organism-based; conditions: in vivo
[7] = Distribution half life in ICR mouse at 20 mg/kg, po administered as via gavage measured for 36 hrs by UPLC analysis; assay type: ADME, organism-based; conditions: in vivo, read-out: alphat1/2 (converted)
[8] = tested on: Staphylococcus aureus; assay: Antibacterial activity against Staphylococcus aureus NRS119 by broth microdilution method; assay type: functional
[9] = Plasma protein binding in human at […] incubated for 2 hrs by UPLC analysis; assay type: ADME, cell-free; conditions: read-out: PPB (converted)
[10] = tested on: Enterococcus faecalis; assay: Antibacterial activity against vancomycin-resistant Enterococcus faecalis 99 clinical isolate by broth microdilution method; assay type: functional
[11] = tested on: Staphylococcus epidermidis; assay: Antibacterial activity against Staphylococcus epidermidis ATCC 35547 by broth microdilution method; assay type: functional
[12] = tested on: Staphylococcus aureus; assay: Antibacterial activity against vancomycin-resistant Staphylococcus aureus VRS2 clinical isolate by broth microdilution method; assay type: functional
[13] = Hemolytic activity in human RBC relative to control; assay type: ADME, cell-based, Erythrocyte; conditions: red blood cells (erythrocytes), read-out: Activity
[14] = Terminal half life in ICR mouse at 20 mg/kg, po administered as via gavage measured for 36 hrs by UPLC analysis; assay type: ADME, organism-based; conditions: in vivo, read-out: beta t1/2 (converted)
[15] = tested on: Staphylococcus aureus; assay: Antibacterial activity against Staphylococcus aureus NRS100 (COL) by broth microdilution method; assay type: functional
[16] = tested on: Enterococcus faecium; assay: Antibacterial activity against vancomycin-resistant Enterococcus faecium 106 clinical isolate by broth microdilution method; assay type: functional
[17] = tested on: Bacillus cereus; assay: Antibacterial activity against Bacillus cereus ATCC 13061 by broth microdilution method; assay type: functional
[18] = tested on: Enterococcus faecalis; assay: Antibacterial activity against Enterococcus faecalis ATCC 29212 by broth microdilution method; assay type: functional
[19] = tested on: Staphylococcus aureus; assay: Antibacterial activity against linezolid-sensitive Staphylococcus aureus NRS70 infected in mouse model of neutropenic thigh infection assessed as reduction in bacterial count at 40 mg/kg, po administered 1 hrs post infection and measured for 48 hrs; assay type: functional
[20] = AUC (0 to last) in ICR mouse at 20 mg/kg, iv measured for 24 hrs by UPLC analysis; assay type: ADME, organism-based; conditions: in vivo
[21] = tested on: Staphylococcus aureus; assay: Antibacterial activity against Staphylococcus aureus ATCC 27660 infected in mouse model of peritonitis at 20 mg/kg, iv dosed at 30 mins and 7.5 hrs post infection and measured for 2 days
[22] = Tmax in ICR mouse at 20 mg/kg, po administered as via gavage measured for 36 hrs by UPLC analysis; assay type: ADME, organism-based; conditions: in vivo
[23] = tested on: Staphylococcus haemolyticus; assay: Antibacterial activity against Staphylococcus haemolyticus ATCC 29970 by broth microdilution method; assay type: functional
[24] = tested on: Staphylococcus aureus; assay: Antibacterial activity against Staphylococcus aureus N315 (NRS70) by broth microdilution method; assay type: functional
[25] = AUC (0 to infinity) in ICR mouse at 20 mg/kg, iv measured for 24 hrs by UPLC analysis; assay type: ADME, organism-based; parameters: dose 20 mg/kg, time infinity, route intravenous; conditions: in vivo
[26] = AUC (0 to last) in ICR mouse at 20 mg/kg, po administered as via gavage measured for 36 hrs by UPLC analysis; assay type: ADME, organism-based; conditions: in vivo
[27] = tested on: Staphylococcus aureus; assay: Antibacterial activity against Staphylococcus aureus ATCC 29213 by broth microdilution method; assay type: functional
[28] = Terminal half life in ICR mouse at 20 mg/kg, iv measured for 24 hrs by UPLC analysis; assay type: ADME, organism-based; conditions: in vivo, read-out: beta t1/2 (converted)
[29] = AUC (0 to infinity) in ICR mouse at 20 mg/kg, po administered as via gavage measured for 36 hrs by UPLC analysis; assay type: ADME, organism-based; parameters: dose 20 mg/kg, route oral, time infinity; conditions: in vivo
[30] = tested on: Staphylococcus aureus; assay: Antibacterial activity against Staphylococcus aureus NRS120 by broth microdilution method; assay type: functional
[31] = tested on: HepG2; assay: Cytotoxicity against human HepG2 cells assessed as reduction in cell viability by XTT assay; assay type: cell-based
[32] = tested on: Enterococcus faecium; assay: Antibacterial activity against Enterococcus faecium NCTC 7171 by broth microdilution method; assay type: functional
[33] = tested on: Bacillus licheniformis; assay: Antibacterial activity against Bacillus licheniformis ATCC 12759 by broth microdilution method; assay type: functional
[34] = tested on: Staphylococcus aureus; assay: Antibacterial activity against vancomycin-resistant Staphylococcus aureus VRS1 clinical isolate by broth microdilution method; assay type: functional
[35] = Drug level in mouse thigh infected with linezolid-sensitive Staphylococcus aureus NRS70 at 40 mg/kg, po administered 1 hrs post infection and measured for 48 hrs; assay type: ADME, organism-based; conditions: read-out: Drug uptake
[36] = Cmax in ICR mouse at 20 mg/kg, po administered as via gavage measured for 36 hrs by UPLC analysis; assay type: ADME, organism-based; parameters: dose 20 mg/kg, route oral; conditions: in vivo
[37] = Drug level in mouse thigh infected with linezolid-resistant Staphylococcus aureus NRS119 at 40 mg/kg, po administered 1 hrs post infection and measured for 48 hrs; assay type: ADME, organism-based; conditions: read-out: Drug uptake
[38] = tested on: Staphylococcus aureus; assay: Antibacterial activity against linezolid-resistant Staphylococcus aureus NRS119 infected in mouse model of neutropenic thigh infection assessed as reduction in bacterial count at 40 mg/kg, po administered […]; assay type: functional
[39] = Volume of distribution in ICR mouse at 20 mg/kg, iv measured for 24 hrs by UPLC analysis; assay type: ADME, organism-based; conditions: in vivo

Compound: Fc1ccc(Oc2ccc(-c3noc(-c4ccc5[nH]ccc5c4)n3)cc2)cc1
- MIC [1]: 1 µg/mL (≈ 2.69 µM)
- half-life [2]: 0.4 h
- MIC [3]: 2 to 4 µg/mL (≈ 5.39 to 10.8 µM)
- MIC [4]: 4 µg/mL (≈ 10.8 µM)
- bioavailability [5]: 41%
- clearance [6]: 7.8 mL/min/kg
- half-life [7]: 6.2 h
- MIC [8]: 1 to 2 µg/mL (≈ 2.69 to 5.39 µM)
- fraction unbound at 2 h [9]: 0.012
- MIC [10]: 4 µg/mL (≈ 10.8 µM)
- MIC [11]: 1 µg/mL (≈ 2.69 µM)
- MIC [12]: 1 µg/mL (≈ 2.69 µM)
- hemolysis [13]: < 1%
- half-life [14]: 17 h
- MIC [15]: 2 µg/mL (≈ 5.39 µM)
- MIC [16]: 1 µg/mL (≈ 2.69 µM)
- MIC [17]: 4 µg/mL (≈ 10.8 µM)
- MIC [18]: 4 µg/mL (≈ 10.8 µM)
- Activity [19]: 1.1 log10CFU
- AUClast [20]: 1790 uM.min/ml
- Activity [21]: Active
- Tmax [22]: 2.5 h
- MIC [23]: 2 µg/mL (≈ 5.39 µM)
- MIC [24]: 1 µg/mL (≈ 2.69 µM)
- AUC [25]: 2570 uM.min/ml
- AUClast [26]: 718 uM.min/ml
- MIC [27]: 1 to 2 µg/mL (≈ 2.69 to 5.39 µM)
- half-life [28]: 21.1 h
- AUC [29]: 1040 uM.min/ml
- MIC [30]: 2 µg/mL (≈ 5.39 µM)
- IC50 [31]: 37 µg/mL (≈ 99.6 µM)
- MIC [32]: 1 µg/mL (≈ 2.69 µM)
- MIC [33]: 2 µg/mL (≈ 5.39 µM)
- MIC [34]: 1 µg/mL (≈ 2.69 µM)
- concentration at 48 h [35]: 5800 ng/g
- Cmax [36]: 1000 ng/mL
- concentration at 48 h [37]: 6400 ng/g
- Activity [38]: 1.5 log10CFU
- Vd [39]: 14.2 L/kg

— ChEMBL document CHEMBL4342484, “Structure-Activity Relationship for the Oxadiazole Class of Antibacterials” (ACS Med Chem Lett, 2020)
